Measured values as given in patent US8957025B2, “Enkephalin analogues” (Pfizer Inc., priority 2011, dated 2015).

Columns and labels:
mu opioid receptor = mu opioid receptor (UniProt P35372); test: Mu-opioid receptor agonist activity; assay type: cell-based
Procedure: The ability of agonists to cause recruitment of beta-arrestin to the mu opioid receptor was measured using DiscoveRx PathHunter technology. A pro-linked tagged mu-opioid receptor and an EA-tagged beta-arrestin were expressed in U2OS cells and beta-arrestin recruitment measured following the methodology in McGuinness et al., 2009 (J Biomol Screen 14:49-58, Characterizing cannabinoid CB2 receptor ligands using DiscoverRx PathHunter beta-arrestin assay—McGuinness D., Malikzay A., Visconti R., Lin K., Bayne M., Monsma F., Lunn C A.)
The ability of mu opioid receptor agonists to inhibit forskolin stimulated cAMP production was measured in CHO cells recombinantly expressing the mu opioid receptor, using alphascreen technology as described in Nickolls et al., 2005, with the additional inclusion of 50 uM forskolin in the assay buffer. (J Pharmacol Exp Ther 313; 1281-88, Functional selectivity of melanocortin 4 receptor peptide and non-peptide agonists: Evidence for ligand specific conformational states. Nickolls S A., Fleck B., Hoare S., Maki R.)
Functional activity at the mu-opioid receptors was determined using the electrically stimulated guinea pig isolated myenteric plexus preparation following the methodology of Hughes, J.; Kosterlitz, H. W. and Leslie, F. M. Br. J. Pharmacol. 1975, 53, 371.

Dofetilide binding = settings: probe dofetilide
[1] = Human liver microsomal stability assay (HLM); assay type: in vitro ADME; settings: pooled liver microsomes, pH 7.4, 1 μM substrate, 37° C.
Excerpt: In vitro measurement of substrate metabolism can be determined using the microsomal cytochrome P450 mono-oxygenase system. This is a useful application in ranking clearance of a number of compounds by Phase I (including cytochrome P450) metabolism prior to in vivo assessment Measurement of intrinsic clearance using these methods also allows a comparison of species difference to be made to assist with translation of pharmacokinetic parameters from preclinical to clinical study.
Human and rat Liver microsomal assays were performed using pooled microsomes from the Pfizer Global Supply (BD Gentest™). Chemical reagents were purchased from commercial sources (Sigma-Aldrich) and drug entities synthesised at Pfizer Global Research. Incubation mixtures contained 50 mM phosphate buffer pH 7.4, 5 mM MgCl2, 5 mM isocitric acid and 1 unit/ml isocitric dehydrogenase. The microsomes were defrosted at room temperature and sufficient volumes added to give a final concentration of 0.5 nmol cytochrome P450/ml. Following the addition of 1 μM of substrate, the incubation was pre-incubated at 37° C. for 5 minutes. The reaction was then initiated by the addition of 1 mM NADP and incubation aliquots are taken over a 1 h time course. The reaction was subsequently stopped by addition of acetonitrile cooled on ice. […]
The intrinsic clearance in rat or human liver microsomes is calculated from: […]

MDR = MDR Papp permeability; assay type: in vitro ADME; settings: not told
[2] = Lipophilicity (LogD), shake-flask octanol/buffer pH 7.4; assay type: physicochemical; settings: octanol / 0.1M phosphate buffer pH 7.4
Excerpt: LogD octanol (pH 7.4) is a measure of lipophilicity that accounts for both hydrophobic and hydrogen-bonding interactions of a given substrate. This assay is based on shake-flask methodology, performed in a fully automated manner in a 0.1M phosphate buffer pH7.4-octanol system.
After addition of the test substance in DMSO stock solution to the mixture and vigorous agitation followed by separation of the octanol and buffer layers by centrifugation, duplicate samples are removed from each layer and diluted prior to analysis by LC-MS/MS. Peak area is corrected for dilutions and the following equation used to calculate the logD (pH 7.4): […]
The duplicate logD values must be with 0.4 log units of each other and the positive controls must be within 0.2 log units of the known logD value.

Row | SMILES | IC50 (mu opioid receptor) [nM] | IC50 (Dofetilide binding) [nM] | microsomal CLint at 1 μM [1] [µL/min/mg] | Papp (MDR) [nm/s] | logD [2]
1 | Cc1cc(O)cc(C)c1C[C@H](N)C(=O)N[C@H](C)C(=O)NC[C@@H](N)Cc1ccccc1 [Example 1, 2,6-Dimethyl-L-tyrosyl-N-[(2S)-2-amino-3-phenylpropyl]-D-alaninamide] | 9.8 | > 22000 | 8.4 | 7 | 0.05
2 | Cc1cc(O)cc(C)c1C[C@H](N)C(=O)N[C@H](C)C(=O)NC[C@H](N)Cc1ccccc1 [Example 2, 2,6-Dimethyl-L-tyrosyl-N-[(2R)-2-amino-3-phenylpropyl]-D-alaninamide] | 6 | > 22000 | < 8 | 6 | -0.2
